Test results published in US20260306641A1, “HELICASE DEGRADERS” (priority 2023, published 2026).
Values belong to the molecule of their own block, whether it stands above or below them.

Legend:
[1] = system: MCM/CMG and replisome proteins in HaCaT cells; experiment: Immunoblots of chromatin-bound or total proteins, synchronized HaCaT cells; assay type: cell-based, human
HSP90 = details: cited from earlier work
human Topoisomerase-II = experiment: Topoisomerase II decatenation assay; assay type: biochemical
Description: The Topoisomerase II drug screening kit (kDNA-based; TopoGEN, TG1009-1A) was used to assess in vitro Topo II enzyme activity according to the manufacture protocol. Assays were performed in […] reactions with 4 μL of 5× Assay Buffer (0.25 M Tris-HCl (pH 8), 10 mM ATP, 0.75 M NaCl, 50 mM MgCl2, 2.5 mM Dithiothreitol, 150 mg/ml BSA), 1 mL kDNA ([…]), 1 mL DMSO solvent or compounds at indicated concentrations, 1 mL Topoisomerase II (2 Units), 13 mL water. Assays were incubated at 37° C. for 30 min and stopped by addition of 2 mL 10% SDS and Proteinase K (50 mg/ml). After incubating at 37° C. for 15 min, samples were mixed with 1/10 volume of loading buffer and resolved on a 1% agarose gel.

HaCaT cells [2] = experiment: CellTiter-Glo viability, HaCaT cells; assay type: cell-based, human; details: 72 hr
Description: Human keratinocytes (HaCaT; RRID:CVCL_0038), 143B cells (osteosarcoma; RRID:CVCL_2270), and HEK-293T (RRID:CVCL_0063) cells were maintained in Dulbecco's Modified Eagle's Medium (DMEM) supplemented with 10% fetal bovine serum (FBS; Peak Serum, PS-FB-2). Human Psn1 (pancreatic ductal adenocarcinoma; RRID:CVCL_1644) and H460 (non-small cell lung carcinoma; RRID:CVCL_0459) cells were cultured in RPMI-1640 medium supplemented with 10% FBS. HaCaT cells were synchronized in Go using serum starvation for 48 hr and released into the cell cycle by addition of DMEM with 10% FBS (51). Novobiocin (cat #46531) and Courmermycin-A1 (cat #C9270) were obtained from Sigma. Etoposide (cat #S1225) and AT7519 (cat #S1524) were obtained from SelleckChem. All stock solutions of inhibitors were stored at −20° C. as 10 mM suspensions in DMSO.
Cell viability determinations were performed using CellTiter-Glo Assays (Promega; cat #G7572). Cells were seeded in 96-well plates at a density of ~3×10^3 cells/well and treated with drugs for 72 hr, after which the cells were processed for viability using CellTiter-Glo reagent according to the instructions of the manufacturer. Each drug concentration test was performed using four replicates, and results averaged and plotted on graphs, +/−1 s.d.

HaCaT cells [3] = experiment: BrdU labeling of DNA replication in synchronized HaCaT cells; assay type: cell-based, human; details: for DNA replication (BrdU), early G1 treatment: added at time 0, 15 μM; for DNA replication (BrdU), early S-phase treatment: treated at 18 hrs, analyzed 3 hrs later, CA1/novobiocin 15 μM, etoposide 5 μM
Description: Verification of synchronization and determination of drug effects was performed by measuring the incorporation of bromo-deoxyuridine (BrdU) into replicating foci within nuclei. At times indicated, cells were pulse-labeled with 15 μM BrdU for 30 min, fixed with 4% paraformaldehyde, and analyzed by standard immunofluorescent techniques(40,51) with an anti-BrdU monoclonal antibody (Roche, clone no. BMC9318, RRID:AB_2313622). The average counts of three fields of 100 or more cells were used to determine the percentages of BrdU-labeled nuclei, +/−1 s.d.

[4] = treated at 18 hr (early S-phase)

SMILES: CO[C@@H]1[C@@H](OC(=O)c2ccc(C)[nH]2)[C@@H](O)[C@H](Oc2ccc3c(O)c(NC(=O)c4c[nH]c(C(=O)Nc5c(O)c6ccc(O[C@@H]7OC(C)(C)[C@H](OC)[C@@H](OC(=O)c8ccc(C)[nH]8)[C@H]7O)c(C)c6oc5=O)c4C)c(=O)oc3c2C)OC1(C)C [CA1]
- Ctf4 and Mcm10 on chromatin ([1]; S-phase cells): reduced on chromatin
- DNA polymerases-a, -d and -e on chromatin ([1]; S-phase cells): caused a loss of DNA polymerases-a, -d, and -e from chromatin
- RPA on chromatin ([1]; S-phase cells): reduced on chromatin
- GINS and Cdc45 loading onto chromatin ([1]; early-G1 treatment): blocked
- Orc2 chromatin binding ([1]; early-G1 treatment): not affected
- MCM loading onto chromatin ([1]; early-G1 treatment, assessed 18 hrs): significantly inhibited
- Cdc45 recruitment ([1]; late-G1 treatment (12 hrs)): not appreciably affected
- Cdt1 dynamics ([1]; late-G1 treatment (12 hrs)): does not affect Cdt1 dynamics
- GINS recruitment to DNA-loaded MCM hexamers ([1]; late-G1 treatment (12 hrs)): inhibits GINS recruitment to DNA-loaded MCM hexamers
- remainder of MCM loading ([1]; late-G1 treatment (12 hrs)): only a small effect, if any
- Cdc6 chromatin association, polyclonal antibody ([1]; middle G1 exposure): not affected in chromatin association
- Cdc6 form on chromatin, monoclonal antibody ([1]; middle G1 exposure): sensitive to CA1
- Orc2 and Orc4 affinity for chromatin ([1]; middle G1 exposure): not affected
- Cdt1 loading on chromatin ([1]; treated at 6 hrs (middle G1)): blocks this Cdt1 loading
- MCMs already loaded on chromatin ([1]; treated at 6 hrs (middle G1)): does not affect MCMs already loaded
- increase in MCM loading at 12 hrs ([1]; treated at 6 hrs (middle G1)): inhibited by CA1
- total Cdt1 ([1]; treated at 6 hrs (middle G1)): promotes loss of total Cdt1
- GINS and Cdc45 chromatin association [1, 4]: notably suppressed
- total protein levels of Psf3 and Cdc45 [1, 4]: slightly affected
- doses required to inhibit HSP90 (HSP90): 700 to 1000 µM
- CA1 concentration required for human Topo-II inhibition relative to that required to block CMG activity (human Topoisomerase-II; decatenation assay in vitro): ~ 10 fold
- human Topoisomerase-II inhibition (human Topoisomerase-II; low concentrations used in cell-based experiments): no inhibitory effect on human Topoisomerase-II at low concentrations
- IC50 (HaCaT cells [2]; Homo sapiens, HaCaT): ~15 µM
- DNA replication (BrdU), early G1 treatment (HaCaT cells [3]): inhibits DNA replication
- DNA replication (BrdU), late-G1 treatment (HaCaT cells [3]; treated at 12 hrs, assessed at 18 hrs): fail to undergo DNA replication
- DNA replication (BrdU), early S-phase treatment (HaCaT cells [3]): effectively suppressed DNA replication

- human Topoisomerase-II inhibition (human Topoisomerase-II; 1 mM): no effect at 1 mM
SMILES: CO[C@@H]1[C@@H](OC(N)=O)[C@@H](O)[C@H](Oc2ccc3c(O)c(NC(=O)c4ccc(O)c(CC=C(C)C)c4)c(=O)oc3c2C)OC1(C)C [novobiocin]
- increase in MCM loading at 12 hrs ([1]; treated at 6 hrs (middle G1)): not by novobiocin
- doses required to inhibit HSP90 (HSP90): 700 to 1000 µM
- effect on HaCaT viability (HaCaT cells [2]): little effect on viability
- DNA replication (BrdU), early G1 treatment (HaCaT cells [3]): little effect
- DNA replication (BrdU), early S-phase treatment (HaCaT cells [3]): did not
